The structures appear in SMILES notation.

Controlling index data for 1 molecule are collected here from patent publication US8039420B2, “Fungicidal composition containing acid amide derivative” (Ishihara Sangyo Kaisha, Ltd., priority 2004, dated 2011).

In the test the test system is Sphaerotheca fuliginea. Description: Test on Preventive Effect Against Cucumber Powdery Mildew. To be noted: 200 ppm, spray on cucumber (Sagamihanpaku) 1.5-leaf stage; area of sporulation 6 to 7 days after inoculation.

Description: In each test, the controlling index was determined on the basis of the following standards:
Cucumber (cultivar: Sagamihanpaku) was cultivated in a plastic pot having a diameter of 7.5 cm, and when it reached 1.5-leaf stage, 10 ml of a chemical solution having the acid amide derivative of the formula (I) or a salt thereof adjusted to a prescribed concentration, was applied by a spray gun. After the chemical solution dried (the same day as the application or the next day), a suspension of conidia of Sphaerotheca fuliginea was sprayed and inoculated and maintained in a constant temperature chamber at 20° C. From 6 to 7 days after the inoculation, the area of sporulation was investigated, and the controlling index was determined in accordance with the above evaluation standards.

`Cc1nn(C)c(Cl)c1C(=O)NC(C)(C)C(=O)c1ccccc1` [1-34]: the controlling index was 4 (Area of lesions, length of lesions, number of lesions or area of sporulation is less than 10% of non-treated plot).
